Paper PMC11361584 (PLOS ONE, 2024)
Where two headings read alike, the source gives them in different places. Blank lines part the entries; values can stand above or below the molecule they belong to.

Experiments:
[1] = Stability of spiked human plasma samples at LQC and HQC at different temperatures; format: in vitro ADME; conditions: plasma sample
Protocol: For preparation of plasma samples, blood was collected from human volunteer and centrifuged to separate the cellular components. Plasma was de-proteinated with acetonitrile (two times volume of plasma) and was used for spiking the analytes. A liquid-liquid extraction method, reported by Jin et al., [18], with slight modification was used for extraction of LSP and OMP. Known amount of LSP, OMP and IS were added to plasma (1 mL), and vortexed for 30 sec. 4 ml of extraction solvent (mixture of ethyl acetate and dichloromethane in 4:1 by volume) was added, vortexed for 2 min and centrifuged at 3000 × g for 10 min. The supernatant (organic) layer was separated and dried under a gentle stream of nitrogen gas. The dried residue was reconstituted with 0.2 mL of mobile phase and an aliquot (20 μL) was injected into the HPLC system. Blank and zero samples were also treated in the same manner.
The stability of the samples was also evaluated at the level of LQC and HQC of both the analytes. The LQC were 10 and 30 ng/mL while the HQC were 120 and 1200 ng/mL for LSP and OMP, respectively. […] The sample stored at –20 °C involved freeze-thawed cycles at a gap of 12 hours between the two-consecutive freeze-thawed cycles.
The stability of the samples was evaluated for short term and relatively long term (one month). […] The % recovery was calculated by comparing the % recovery (concentration recovered) with freshly prepared spiked samples.

[2] = Pharmacokinetics of omeprazole 40 mg alone and co-administered with levosulpiride 50 mg in healthy human volunteers (Phase-2); format: in vivo
Protocol: (§1) The developed method was applied for evaluation of pharmacokinetics drug-drug interaction between LSP and OMP in healthy human volunteers (n = 20). Both the drugs were administered to the healthy volunteers, their blood samples were collected at specified time points and analyzed for the drug content, using the developed method. Written consent form was signed by all the volunteers and purpose of the study was explained to them. They were physically examined and medical history was recorded. Age of the volunteers was 20–28 years, with mean body mass index (BMI) of […]. Complete blood count, creatinine clearance, and liver function tests of all the healthy human volunteers were performed. All the volunteers were non-smokers and had no history of addiction. They were instructed not to take any medicines for two weeks before the study.
(§2) The study was conducted according to the “World Medical Association Declaration of Helsinki-Ethical principles of medical research involving human subjects” and its amendments. This study was approved by the ethical committee, Department of Pharmacy, University of Swabi, KP, Pakistan (Application number F.NO.UOS/2022/Pharm.02). It was an open-label, randomized, crossover, pharmacokinetic interaction study. The volunteers were divided into two groups of same size (n = 10) and the trial was conducted in two phases and two sequences, as follows;
Phase-2 of the study was started after one month of the completion of Phase-1, as follows;
• Group-I: LSP 50 mg was given for 6 days twice a day and on the 7th day single dose of OMP 40 mg was administered • Group-II: OMP 40 mg was administered alone.
The blood was sampled at 0, 0.25, 0.5, 1, 2, 3, 4, 6, 8, and 12 hours.
After 14 days washout period, the pattern of drug administration was reversed as follows;
• Group-I: OMP 40 mg was administered alone. • Group-II: LSP 50 mg was given for 6 days twice a day and on the 7th day single dose of OMP 40 mg was administered
(§3) The pharmacokinetic parameters were determined using non-compartmental analysis using PK-Summit (version 2.0.2). The plasma concentration of the drug (ng/mL) versus time (hour) profile was constructed for both drugs when administered alone and in combination with each another. The pharmacokinetic parameters like peak plasma concentration (Cmax), time to reach peak plasma concentration (Tmax), area under the concentration-time curve from zero time to time-t (AUC0-t) i.e. AUC0-36 for LSP and AUC0-12 for OMP, area under the concentration-time curve from zero time to infinity (AUC0-∞), elimination half-life (t1/2) and clearance (CL) were determined.
(§4) All the analysis was performed as per ICH guidelines using mean, standard deviation, and relative standard deviation. In the pharmacokinetic studies, the parameter values were compared using a t-test. The P-value (t-test) was calculated using the IBM SPPS statistics version 20. A p < 0.05 (95% confidence interval) was considered to be significant.

[3] = Pharmacokinetics of levosulpiride 50 mg alone and co-administered with omeprazole 40 mg in healthy human volunteers (Phase-1); format: in vivo; conditions: for AUC(0-inf) / AUC(0-t) / Cmax / Tmax / half-life: human, plasma, oral; for CL/F: healthy human volunteers (n = 20), mean ± SD
Protocol: as §1, §2
Phase-1: First phase of the study consisted of two cycles with a wash out period of 14 days. During first phase of the study;
• Group-I: OMP 40 mg was administered twice a day for 6 days, and on the 7th day a single dose of LSP 50 mg was administered • Group-II: LSP 50 mg was administered alone as a single dose
Blood samples (3 mL) were collected at 0, 0.25, 0.5, 1, 2, 3, 4, 6, 8, 12, 24 and 36 hours. After 14 days washout period;
• Group-I: LSP 50 mg was administered alone • Group-II: OMP 40 mg, was administered twice a day for 6 days, on the 7th day LSP 50 mg was administered
as §3, §4

[4] = cited from earlier work
[5] = set-up: method as in PMID 12236477; conditions: metabolites of omeprazole; cited from earlier work
[6] = plasma, oral, omeprazole 40 mg alone, healthy human volunteers (n = 20), mean ± SD
[7] = levosulpiride with omeprazole versus alone, not significant

% recovery (mean) ([1]; High QC (1200 ng/ml), 15 °C for 12 hours (autosampler temperature)): 99.31%
% recovery (mean) ([1]; High QC (1200 ng/ml), -20 °C for 24 hours): 99.48%
% recovery (mean) ([1]; High QC (1200 ng/ml), -20°C for one month, three freezed cycles): 98.80%
% recovery (mean) ([1]; High QC (1200 ng/ml), RT for 24 hours): 98.35%
% recovery (mean) ([1]; Low QC (30 ng/ml), 15 °C for 12 hours (autosampler temperature)): 98.66%
% recovery (mean) ([1]; Low QC (30 ng/ml), -20 °C for 24 hours): 99.33%
% recovery (mean) ([1]; Low QC (30 ng/ml), -20°C for one month, three freezed cycles): 98.73%
% recovery (mean) ([1]; Low QC (30 ng/ml), RT for 24 hours): 96.11%
AUC(0-inf) ([2]; human, plasma, oral): 6490 ± 1610 ng·h/mL
AUC(0-t) ([2]; human, plasma, oral): 5950 ± 1430 ng·h/mL
Tmax ([2]; human, plasma, oral): 1.85 ± 0.83 h
half-life ([2]; human, plasma, oral): 134 ± 62 min
CL/F ([2]; omeprazole 40 mg alone, healthy human volunteers (n = 20), mean ± SD): 7118.71 ± 2407.41 mL/h
CL/F ([2]; omeprazole 40 mg with levosulpiride 50 mg, healthy human volunteers (n = 20), mean ± SD): 7100.69 ± 2001.55 mL/h
AUC(0-t) ([2]; plasma, oral, omeprazole 40 mg alone, AUC0-12, healthy human volunteers (n = 20), mean ± SD): 6090 ± 1480 ng·h/mL
AUC(0-inf) [2, 6]: 6650 ± 1650 ng·h/mL
Tmax [2, 6]: 1.95 ± 0.99 h
half-life [2, 6]: 138 ± 56.4 min
Cmax ([2]; plasma, oral, omeprazole 40 mg single dose administered alone, healthy human volunteers (n = 20), mean ± SD): 1140 ± 262 ng/mL
SMILES: COc1ccc2[nH]c([S+]([O-])Cc3ncc(C)c(OC)c3C)nc2c1 (stereo not shown) [Omeprazole]

% recovery (mean) ([1]; High QC (120 ng/ml), 15 °C for 12 hours (autosampler temperature)): 99.67%
% recovery (mean) ([1]; High QC (120 ng/ml), -20 °C for 24 hours): 99.17%
% recovery (mean) ([1]; High QC (120 ng/ml), -20°C for one month, three freezed cycles): 98.33%
% recovery (mean) ([1]; High QC (120 ng/ml), RT for 24 hours): 98.00%
% recovery (mean) ([1]; Low QC (10ng/ml), 15 °C for 12 hours (autosampler temperature)): 98.36%
% recovery (mean) ([1]; Low QC (10ng/ml), -20 °C for 24 hours): 98.75%
% recovery (mean) ([1]; Low QC (10ng/ml), -20°C for one month, three freezed cycles): 96.90%
% recovery (mean) ([1]; Low QC (10ng/ml), RT for 24 hours): 96.80%
AUC(0-inf) [3]: 2210 ± 577 ng·h/mL
AUC(0-t) [3]: 1770 ± 482 ng·h/mL
Cmax [3]: 118 ± 26.3 ng/mL
Tmax [3]: 3.71 ± 0.75 h
half-life [3]: 763 ± 286 min
AUC(0-inf) ([3]; 50 mg): 1870 ± 627 ng·h/mL
AUC(0-t) ([3]; 50 mg): 1540 ± 473 ng·h/mL
Cmax ([3]; 50 mg): 109 ± 24.9 ng/mL
Tmax ([3]; 50 mg): 3.8 ± 1.05 h
half-life ([3]; 50 mg): 797 ± 159 min
CL/F ([3]; levosulpiride 50 mg alone): 35832 ± 8402 mL/h
CL/F ([3]; levosulpiride 50 mg with omeprazole 40 mg): 30333 ± 6326 mL/h
increase of AUC0-t [3, 7]: 14.52%
increase of AUC0-∞ [3, 7]: 18.36%
increase of Cmax [3, 7]: 8.79%
reduction of CL [3, 7]: 15.34%
SMILES: CCN1CCC[C@H]1CNC(=O)c1cc(S(N)(=O)=O)ccc1OC [Levosulpiride]
elimination half-life ([4]; depending upon route of administration, dosage form and dose): 6 to 19 h
elimination half-life ([4]; orally administered LSP 25 mg): 12.0 h
elimination half-life ([4]; orally administered LSP 50 mg): 12.6 h
elimination half-life ([4]; orally administered LSP 100 mg): 14.3 h

SMILES: COc1ccc2nc([S+]([O-])Cc3ncc(CO)c(OC)c3C)[nH]c2c1 (stereo not shown) [5-hydroxy omeprazole]
pharmacological activity [5]: pharmacologically inactive

SMILES: COc1ccc2nc(S(=O)(=O)Cc3ncc(C)c(OC)c3C)[nH]c2c1 [omeprazole sulfone]
pharmacological activity [5]: pharmacologically inactive
